Measurements reported in paper PMC12133000 (PLOS One, 2025).
Like-named read-outs stand apart in the source and are kept apart here.

Assay: Pharmacokinetics of rivaroxaban in rats after avitinib or gefitinib pretreatment
Assay type: in vivo, Sprague–Dawley (SD) rats
Details: male, Sprague-Dawley, rat, plasma; for AUC(0-t): read-out: AUC(0-t); for CL/F: read-out: CLz/F (converted); for Cmax: read-out: Cmax; for MRT last: read-out: MRT(0-t); for half-life: read-out: t1/2z (converted); for k el: read-out: λz (converted); for MRT inf: read-out: MRT(0-∞)
Description: Eighteen male Sprague–Dawley (SD) rats weighing 300 ± 20 g were provided by the Experimental Animal Center of Wenzhou Medical University (Wenzhou, China) and kept under controlled conditions at a temperature of 23 ± 2 °C, relative humidity of 50 ± 10%, and 12 h light–dark cycle. Eighteen male SD rats were randomly assigned to three groups: avitinib, gefitinib, and control, with six rats per group. Prior to the experiment, the rats were not administered any other medications and fasted for 12 h. The experimental procedures and protocols adhered to Animal Ethics standards and were approved by the Animal Care and Use Committee of Wenzhou Medical University (approval no. wydw2019–650). All rats were anesthetized with sodium pentobarbital (40mg/kg, i.p) to relieve pain. The rats were killed through cervical dislocation.
Prior to the experiment in vivo, the six rats in the avitinib group were administered 30 mg/kg avitinib and 0.5% sodium carboxymethyl cellulose (CMC-Na) solution by gavage daily for 7 d. […] The supernatant was collected and stored at −80 °C. After thawing, 50 μL of plasma was extracted; 100 μL of acetonitrile solution containing midazolam (200 ng/mL) was then added to induce protein precipitation. After vortexing for 30 s and centrifuging at 13,000 rpm for 5 min, the […].
All assays were performed in triplicate, and the results are expressed as mean ± standard deviation. DAS software v. […] SPSS v. 25.0 (IBM, NY, USA) was used for data processing. Student’s t-tests were used to detect differences between groups. Differences with p < 0.05 were considered statistically significant.

[1] = po, 10 mg/kg, avitinib group, Mean
[2] = po, 10 mg/kg, avitinib group, single rats No1-No6
[3] = po, 10 mg/kg, gefitinib group, Mean
[4] = po, 10 mg/kg, gefitinib group, single rats No1-No6

concentration at 12 h (oral, rivaroxaban ng/ml mean, 吉非替尼 (gefitinib) group, mean of rats 7-12, time 12): 1640 ng/mL
concentration at 24 h (oral, rivaroxaban ng/ml mean, 艾维替尼 (avitinib) group, mean (one rat only), time 24): 14.8 ng/mL
concentration at 5 min (oral, rivaroxaban ng/ml mean, 艾维替尼 (avitinib) group, mean of rats 1-6, time 0.0833): 284 ng/mL
concentration at 0.25 h (oral, rivaroxaban ng/ml mean, 艾维替尼 (avitinib) group, mean of rats 1-6, time 0.25): 588 ng/mL
concentration at 0.5 h (oral, rivaroxaban ng/ml mean, 艾维替尼 (avitinib) group, mean of rats 1-6, time 0.5): 1090 ng/mL
concentration at 1 h (oral, rivaroxaban ng/ml mean, 艾维替尼 (avitinib) group, mean of rats 1-6, time 1): 1730 ng/mL
concentration at 2 h (oral, rivaroxaban ng/ml mean, 艾维替尼 (avitinib) group, mean of rats 1-6, time 2): 1650 ng/mL
concentration at 3 h (oral, rivaroxaban ng/ml mean, 艾维替尼 (avitinib) group, mean of rats 1-6, time 3): 1390 ng/mL
concentration at 4 h (oral, rivaroxaban ng/ml mean, 艾维替尼 (avitinib) group, mean of rats 1-6, time 4): 1010 ng/mL
concentration at 6 h (oral, rivaroxaban ng/ml mean, 艾维替尼 (avitinib) group, mean of rats 1-6, time 6): 538 ng/mL
concentration at 8 h (oral, rivaroxaban ng/ml mean, 艾维替尼 (avitinib) group, mean of rats 1-6, time 8): 448 ng/mL
concentration at 12 h (oral, rivaroxaban ng/ml mean, 艾维替尼 (avitinib) group, mean of rats 1-6, time 12): 80.9 ng/mL
concentration at 0.25 h (oral, rivaroxaban ng/ml, 吉非替尼 (gefitinib) group, individual rats 7-12, time 0.25): 1690 ng/mL
concentration at 0.5 h (oral, rivaroxaban ng/ml, 吉非替尼 (gefitinib) group, individual rats 7-12, time 0.5): 3820 ng/mL
concentration at 1 h (oral, rivaroxaban ng/ml, 吉非替尼 (gefitinib) group, individual rats 7-12, time 1): 5910 ng/mL
concentration at 3 h (oral, rivaroxaban ng/ml, 吉非替尼 (gefitinib) group, individual rats 7-12, time 3): 9510 ng/mL
concentration at 4 h (oral, rivaroxaban ng/ml, 吉非替尼 (gefitinib) group, individual rats 7-12, time 4): 11300 ng/mL
concentration at 6 h (oral, rivaroxaban ng/ml, 吉非替尼 (gefitinib) group, individual rats 7-12, time 6): 3980 ng/mL
concentration at 8 h (oral, rivaroxaban ng/ml, 吉非替尼 (gefitinib) group, individual rats 7-12, time 8): 3270 ng/mL
concentration at 5 min (oral, rivaroxaban ng/ml, 艾维替尼 (avitinib) group, individual rats 1-6, time 0.0833): 237 ng/mL
concentration at 24 h (oral, rivaroxaban ng/ml, 艾维替尼 (avitinib) group, individual rats 1-6, time 24): 14.8 ng/mL
AUC(0-inf) [1]: 9350 ng·h/mL
Tmax [1]: 1.33 h
AUC(0-t) [1]: 9000 ng·h/mL
CL/F [1]: 19.7 mL/min/kg
Cmax [1]: 1810 ng/mL
MRT last [1]: 3.79 h
half-life [1]: 2.2 h
k el [1]: 0.000104 s⁻¹
Tmax [2]: 1 h
MRT last [2]: 3.83 h
MRT inf [2]: 2.87 h
AUC(0-inf) [3]: 76000 ng·h/mL
Tmax [3]: 3.17 h
AUC(0-t) [3]: 58000 ng·h/mL
CL/F [3]: 2.32 mL/min/kg
Cmax [3]: 8310 ng/mL
MRT last [3]: 4.9 h
MRT inf [3]: 8.23 h
Vd/F (po, 10 mg/kg, gefitinib group, Mean, read-out: Vz/F): 0.867 L/kg
half-life [3]: 4.81 h
k el [3]: 5.17e-05 s⁻¹
AUC(0-inf) [4]: 109000 ng·h/mL
AUC(0-t) [4]: 62400 ng·h/mL
CL/F [4]: 1.53 mL/min/kg
Cmax [4]: 6780 ng/mL
SMILES: O=C(NC[C@H]1CN(c2ccc(N3CCOCC3=O)cc2)C(=O)O1)c1ccc(Cl)s1 [rivaroxaban, Rivaroxaban]
